In publication PMC4973850, “Molecular structure‐function relationship of dietary polyphenols for inhibiting VEGF‐induced VEGFR‐2 activity” (Molecular Nutrition & Food Research, 2015):
Blank lines part the entries; values can stand above or below the molecule they belong to.

Molecular target: T1, VEGF (human recombinant VEGFA165); VEGF‐induced VEGFR‐2 activation in HUVECs (Homo sapiens, UniProt P15692)
T1 construct: purchased R&D Systems, Abingdon, UK
T1 sequence (P15692 1-191 isoform P15692-4): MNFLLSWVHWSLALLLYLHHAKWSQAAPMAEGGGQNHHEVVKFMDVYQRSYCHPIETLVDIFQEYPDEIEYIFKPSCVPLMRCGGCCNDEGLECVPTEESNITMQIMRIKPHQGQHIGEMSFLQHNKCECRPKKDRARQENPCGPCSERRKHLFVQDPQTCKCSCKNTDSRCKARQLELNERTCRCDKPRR
Assay: Inhibition of VEGF‐induced VEGFR‐2 phosphorylation in HUVECs after pre‐incubating VEGF with polyphenol (Phospho‐VEGFR‐2 Tyr1175 ELISA);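 further: sandwich ELISA of VEGFR-2 phosphorylated at Tyr1175 in lysates of confluent HUVECs, with VEGF alone and DMSO vehicle (≤0.1%) as control incubations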
Format: cell-based
Settings: for Inhibition (%): HUVECs; for IC50 (μM) / IC50: VEGF 25 ng/mL pre‐incubated 5 min with polyphenol, then HUVECs 5 min, phospho‐VEGFR‐2 ELISA, 95% confidence intervals in parentheses

Inhibition (%) (at 50 μM polyphenol): Ineffective | Inhibition (%) (at 50 μM polyphenol, listed as hirsutrin): completely ineffective
Compound: O=c1c(O[C@@H]2O[C@H](CO)[C@@H](O)[C@H](O)[C@H]2O)c(-c2ccc(O)c(O)c2)oc2cc(O)cc(O)c12 [Hirsutrin]

Inhibition (%) (at 50 μM polyphenol): Ineffective | Inhibition (%) (at 50 μM polyphenol, listed as hyperoside): completely ineffective
Compound: O=c1c(O[C@@H]2O[C@H](CO)[C@H](O)[C@H](O)[C@H]2O)c(-c2ccc(O)c(O)c2)oc2cc(O)cc(O)c12 [Hyperoside]

IC50 (μM): 9.341 (7.749–11.26) μM
Compound: O=c1c(O)c(-c2ccc(O)cc2)oc2cc(O)cc(O)c12 [Kaempferol]

IC50 (μM): 7.46 (6.592–8.446) μM
Compound: O=c1cc(-c2ccc(O)c(O)c2)oc2cc(O)cc(O)c12 [Luteolin]

Inhibition (%) (at 100 μM polyphenol): Ineffective (100 μM)
Compound: COC(=O)c1cc(O)c(O)c(O)c1 [Methyl gallate]

Inhibition (%) (at 100 μM polyphenol): 88.5 (100 μM) %
Compound: O=C1C[C@@H](c2ccc(O)cc2)Oc2cc(O)cc(O)c21 [Naringenin]

IC50 (μM): 3.311 (3.047–3.598) μM | IC50 (listed as orobol): 3.31 µM | fold lower IC50 compared with luteolin (ratio of IC50 values): 2 fold
Compound: O=c1c(-c2ccc(O)c(O)c2)coc2cc(O)cc(O)c12 [Orobol]

Inhibition (%) (at 50 μM polyphenol): Ineffective | Inhibition (%) (at 50 μM polyphenol, listed as phloridzin): completely ineffective
Compound: O=C(CCc1ccc(O)cc1)c1c(O)cc(O)cc1O[C@@H]1O[C@H](CO)[C@@H](O)[C@H](O)[C@H]1O [Phloridzin]

Inhibition (%) (at 50 μM polyphenol): 28%
Compound: OC[C@H]1O[C@@H](Oc2cc(O)cc(/C=C/c3ccc(O)cc3)c2)[C@H](O)[C@@H](O)[C@@H]1O [Piceid]

IC50 (μM): 0.547 (0.527–0.568) μM
Compound: COc1cc(O)c2c(=O)c(O)c(-c3ccc(O)c(O)c3)oc2c1 [Rhamnetin]

Inhibition (%) (at 50 μM polyphenol): Ineffective | Inhibition (%) (at 50 μM polyphenol, listed as rutin): completely ineffective
Compound: C[C@@H]1O[C@@H](OC[C@H]2O[C@@H](Oc3c(-c4ccc(O)c(O)c4)oc4cc(O)cc(O)c4c3=O)[C@H](O)[C@@H](O)[C@@H]2O)[C@H](O)[C@H](O)[C@H]1O [Rutin]

Inhibition (%) (at 100 μM polyphenol): Ineffective (100 μM) | Inhibition (%) (at 100 μM polyphenol, listed as sinensetin): inhefective
Compound: COc1ccc(-c2cc(=O)c3c(OC)c(OC)c(OC)cc3o2)cc1OC [Sinensetin]

Inhibition (%) (at 100 μM polyphenol): 100 (100 μM) %
Compound: COc1ccc(-c2oc3cc(O)cc(O)c3c(=O)c2O)cc1O [Tamarixetin]

Inhibition (%) (at 100 μM polyphenol): 12.3 (100 μM) %
Compound: O=C1c2c(O)cc(O)cc2O[C@H](c2ccc(O)c(O)c2)[C@H]1O [Taxifolin]

Second part, the molecule before the results:

Compound: O=c1c(O)c(-c2ccccc2)oc2ccccc12 [3‐hydroxyflavone]
Inhibition (%) (at 100 μM polyphenol): 52.8 (100 μM) %

Compound: O=c1cc(-c2ccc(O)c(O)c2)oc2c(O)c(O)ccc12 [3′,4′,7,8‐tetrahydroxyflavone]
Inhibition (%) (at 100 μM polyphenol): 63.2 (100 μM) %

Compound: O=c1cc(-c2ccccc2)oc2cc(O)ccc12 [7‐hydroxyflavone]
Inhibition (%) (at 100 μM polyphenol): Ineffective (100 μM)

Compound: Oc1cc(O)c2c(c1)O[C@H](c1ccc(O)c(O)c1)[C@@H](O)C2 [(+)‐Catechin]
IC50 (μM): 214.7 (178. 2–258.7) μM | IC50 (listed as (+)‐catechin): 215 µM

Compound: O=C1c2ccc(O)cc2O[C@H](c2cc(O)c(O)c(O)c2)[C@H]1O [(+)‐Dihydrorobinetin]
Inhibition (%) (at 50 μM polyphenol): 66%

Compound: Oc1cc(O)c2c(c1)O[C@H](c1ccc(O)c(O)c1)[C@H](O)C2 [(−)‐Epicatechin]
Inhibition (%) (at 200 μM polyphenol (highest concentration tested)): Ineffective (200 μM) | Inhibition (%) (at 200 μM polyphenol (highest concentration tested), listed as (−)‐epicatechin): not an inhibitor | Inhibition (%) (at 200 μM polyphenol (highest concentration tested), listed as epicatechin): ineffective

Compound: O=C(O)/C=C/c1ccc(O)c(O)c1 [Caffeic acid]
Inhibition (%) (at 50 μM polyphenol): Ineffective

Compound: O=C(/C=C/c1ccc(O)c(O)c1)O[C@@H]1C[C@](O)(C(=O)O)C[C@@H](O)[C@H]1O [Chlorogenic acid]
Inhibition (%) (at 50 μM polyphenol): Ineffective

Compound: O=c1cc(-c2ccccc2)oc2cc(O)cc(O)c12 [Chrysin]
Inhibition (%) (at 100 μM polyphenol): 58.6 (100 μM) %

Compound: Oc1cc(O)c2cc(O)c(-c3ccc(O)c(O)c3)[o+]c2c1 [Cyanidin]
IC50: 1.05 µM | IC50 (μM): 1.053 (0.764–1.453) μM | log IC50 (datapoint of Fig. 3B): 0.022 | fold lower IC50 compared with (+)‐catechin (ratio of IC50 values): 200 fold

Compound: O=C(O[C@@H]1Cc2c(O)cc(O)cc2O[C@@H]1c1ccc(O)c(O)c1)c1cc(O)c(O)c(O)c1 [ECG, epicatechin gallate]
IC50 (μM): 0.16 (0.150–0.183) μM

Compound: Oc1cc(O)c2c(c1)O[C@H](c1cc(O)c(O)c(O)c1)[C@H](O)C2 [EGC, epigallocatechin]
IC50 (μM): 42.9 (36.96–49.97) μM

Compound: O=C(O[C@@H]1Cc2c(O)cc(O)cc2O[C@@H]1c1cc(O)c(O)c(O)c1)c1cc(O)c(O)c(O)c1 [EGCG, epigallocatechin gallate]
IC50 (μM): 0.088 (0.078–0.100) μM | fold lower IC50 than ECG (ratio of IC50 values): 2 fold

Compound: O=C1C[C@@H](c2ccc(O)c(O)c2)Oc2cc(O)cc(O)c21 [Eriodictyol]
Inhibition (%) (at 50 μM polyphenol): 20%

Compound: O=c1cc(-c2ccccc2)oc2ccccc12 [Flavone]
Inhibition (%) (at 100 μM polyphenol): Ineffective (100 μM) | Inhibition (%) (at 100 μM polyphenol, listed as flavone): ineffective

Compound: O=c1c(O)c(-c2ccccc2)oc2cc(O)cc(O)c12 [Galangin]
Inhibition (%) (at 50 μM polyphenol): 85%

Compound: O=C(O)c1cc(O)c(O)c(O)c1 [Gallic acid]
Inhibition (%) (at 50 μM polyphenol): 32%

Compound: O=c1c(-c2ccc(O)cc2)coc2cc(O)cc(O)c12 [Genistein]
Inhibition (%) (at 50 μM polyphenol): 22%

Compound: COc1cc(-c2oc3cc(O)cc(O)c3c(=O)c2O)ccc1O [Isorhamnetin]
IC50 (μM): 9.053 (7.676–10.68) μM | fold higher IC50 than quercetin (ratio of IC50 values): 12 fold

Compound: O=c1c(O)c(-c2ccc(O)cc2O)oc2cc(O)cc(O)c12 [Morin]
IC50 (μM): 1.482 (1.357–1.618) μM | fold higher IC50 than quercetin (ratio of IC50 values): about 2 fold

Compound: O=c1c(O)c(-c2cc(O)c(O)c(O)c2)oc2cc(O)cc(O)c12 [Myricetin]
IC50 (μM): 0.121(0.102–0.144) μM | fold lower IC50 than EGC (ratio of IC50 values): > 300 fold

Compound: O=c1c(O)c(-c2ccc(O)c(O)c2)oc2cc(O)c(O)c(O)c12 [Quercetagetin]
IC50 (μM): 0.096 (0.083–0.109) μM | fold more potent VEGF inhibitor than quercetin (ratio of IC50 values): sevenfold

Compound: O=c1c(O)c(-c2ccc(O)c(O)c2)oc2cc(O)cc(O)c12 [Quercetin]
IC50 (μM): 0.754 (0.674–0.842) μM | IC50 (listed as quercetin): 0.75 µM | fold lower IC50 compared with (+)‐catechin (ratio of IC50 values): > 250 fold | fold lower IC50 compared with luteolin (ratio of IC50 values): 10 fold

Compound: C[C@@H]1O[C@@H](Oc2c(-c3ccc(O)c(O)c3)oc3cc(O)cc(O)c3c2=O)[C@H](O)[C@H](O)[C@H]1O [Quercitrin]
Inhibition (%) (at 50 μM polyphenol): Ineffective | Inhibition (%) (at 50 μM polyphenol, listed as quercitrin): completely ineffective
